According to patent publication US6649814B2, “Cytochrome P450 monooxygenases” (Syngenta Participations AG, priority 1997, dated 2003):

Tests used:
[1] = target: T1, cytochrome P450OX (Sorghum bicolor, UniProt O48958); test: reconstitution of cytochrome P450OX activity in lipid micelles; type: biochemical; parameters: from tissue; host or cells: microsomes of etiolated Sorghum bicolor seedlings; settings: 10 mM, in place of NADPH
T1 sequence (O48958 2-531): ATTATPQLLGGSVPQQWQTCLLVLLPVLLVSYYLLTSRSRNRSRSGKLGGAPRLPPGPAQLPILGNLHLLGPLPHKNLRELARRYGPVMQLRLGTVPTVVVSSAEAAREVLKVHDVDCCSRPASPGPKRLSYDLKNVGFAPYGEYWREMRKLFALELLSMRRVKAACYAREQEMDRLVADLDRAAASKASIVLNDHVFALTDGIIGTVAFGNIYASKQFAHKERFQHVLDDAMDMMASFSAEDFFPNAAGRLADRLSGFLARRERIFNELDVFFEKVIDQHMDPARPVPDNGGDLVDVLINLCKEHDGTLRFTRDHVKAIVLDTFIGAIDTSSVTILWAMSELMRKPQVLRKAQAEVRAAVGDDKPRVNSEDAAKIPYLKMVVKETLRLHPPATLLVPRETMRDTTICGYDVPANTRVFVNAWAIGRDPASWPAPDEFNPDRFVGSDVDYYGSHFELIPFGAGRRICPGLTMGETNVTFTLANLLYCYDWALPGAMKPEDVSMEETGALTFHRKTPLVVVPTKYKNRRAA
Description: (§1) Reconstitution of the enzyme activity of a microsomal cytochrome P450 is accomplished by inserting the cytochrome P450 enzyme and the corresponding NADPH cytochrome P450 oxidoreductase into lipid micelles. A mixture of lipids can be used but in the case of cytochrome P450OX, dilauroylphosphatidylcholine (DLPC) provides the best enzymatic activity. The number of correctly formed complexes of cytochrome P450OX and NADPH cytochrome P450 oxidoreductase are a rate limiting factor. Excess amounts of the oxidoreductase and concentrated enzyme solutions are utilized to ensure a sufficient number of active complexes.
(§2) A functionally reconstituted enzyme is obtained using the following components: […]
(§3) The complete reaction mixtures contain: 3 μl of isolated, recombinant P450TYR (6 pmol, heterologously expressed in E. coli and isolated as in Halkier et al, Arch. Biochem. Biophys. 322: 369-377, 1995), 10 μl of isolated and dialyzed P450OX (approximately 0.4 pmol), 5 μl of NADPH-P450 oxidoreductase (0.075 U), 1 μl of partially purified UDPG glucosyl transferase from Sorghum, 5 μl of DLPC (10 mg/ml in 50 mM Kpi (pH7)), 0.25 μl of [U-^14C]-tyrosine ([…], 443 mCi/mmol, Amersham), 3 μl of UDPG (33 mg/ml in 50 mM Kpi (pH7)), and 3 μl of castanospermin (2 mM in 50 mM Kpi (pH7)). […] The first set of reaction mixtures is analyzed using the ethyl acetate/toluene solvent as in example 4.5. […]

[2] = system: glucosidase activity present in the UDPG glucosyltransferase extract; test: inhibition of glucosidase activity in the in vitro dhurrin reconstitution; type: biochemical, Sorghum; settings: 3 μl of 2 mM in 30 μl reaction mixture
Experimental: as §3, with “4.5. The second set of reaction mixtures is analyzed using a solvent system consisting of ethyl acetate/acetone/dichloromethane/methanol/water (20/15/6/5/4, v/v/v/v/v) in order to achieve separation of the hydrophilic product dhurrin from tyrosine and from the hydrophobic intermediates.” for “4.5.”
The combined use of isolated P450TYR and P450OX in reconstitution experiments with radiolabeled tyrosine as substrate results in the production of p-hydroxyphenylacetonitrile and p-hydroxybenzaldehyde. […] Due to the lability of p-hydroxymandelonitrile its conversion to dhurrin is experimentally detected as a disappearance of p-hydroxybenzaldehyde. […]

[3] = target: T1, cytochrome P450OX; test: reconstitution of cytochrome P450OX activity in lipid micelles; type: biochemical; parameters: 10 μl of the cytochrome P450OX (approximately 0.4 pmol) solution; from tissue; host or cells: microsomes of etiolated Sorghum bicolor seedlings
Description: as §1, §2, §3

[4] = system: microsomal system; settings: the substance is the substrate, cited from earlier work; for Km: read-out: Km for p-hydroxymandelonitrile production
[5] = target: T2, P450OX (Sorghum bicolor, UniProt O48958); test: substrate binding spectra of isolated P450OX; settings: for substrate binding spectrum: upon substrate addition
T2 construct: from tissue; host or cells: microsomes of etiolated Sorghum bicolor seedlings
T2 sequence (O48958 1-531): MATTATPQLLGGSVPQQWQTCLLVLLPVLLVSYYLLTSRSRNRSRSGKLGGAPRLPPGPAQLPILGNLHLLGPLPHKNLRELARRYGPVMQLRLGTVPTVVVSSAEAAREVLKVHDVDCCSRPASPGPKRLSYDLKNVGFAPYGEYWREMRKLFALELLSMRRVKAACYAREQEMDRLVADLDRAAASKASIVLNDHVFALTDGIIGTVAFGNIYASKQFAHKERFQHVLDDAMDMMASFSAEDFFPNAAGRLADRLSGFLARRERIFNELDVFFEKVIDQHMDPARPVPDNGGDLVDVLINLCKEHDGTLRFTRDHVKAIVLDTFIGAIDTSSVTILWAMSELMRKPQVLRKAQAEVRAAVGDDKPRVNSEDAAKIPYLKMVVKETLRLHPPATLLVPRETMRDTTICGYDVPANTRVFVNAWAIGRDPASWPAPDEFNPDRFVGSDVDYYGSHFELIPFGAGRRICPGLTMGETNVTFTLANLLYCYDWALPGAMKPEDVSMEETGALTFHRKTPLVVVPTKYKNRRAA
Experimental: The identification of P450OX as a multifunctional enzyme converting p-hydroxyphenylacetaldoxime to p-hydroxymandelonitrile with p-hydroxyphenylacetonitrile as an intermediate stimulated us to investigate the substrate binding ability of P450OX. […] The amplitude increased in size upon incubation and reached a stable maximum after approximately 45 min.
The isolated P450OX produces a reverse Type I substrate binding spectrum upon incubation with p-hydroxyphenylacetaldoxime. The extinction coefficient E420-390 corresponding to a complete transition from one spin state to the other is 130 mM^−1 cm^−1. In the substrate binding spectra obtained, the maximal amplitudes are approximately twice as large as theoretically calculated even when assuming a complete shift from a high spin to a low spin state. […] Alternatively, the P420 form of P450OX is able to bind the oxime and thus contributes to the size of the substrate binding spectrum formed. The latter possibility could explain why maximal amplitudes are only obtained after prolonged incubation.

[6] = target: T3, P450TYR (CYP79) (Sorghum bicolor, UniProt Q43135); settings: upon in vitro reconstitution; cited from earlier work
T3 sequence (Q43135 1-558): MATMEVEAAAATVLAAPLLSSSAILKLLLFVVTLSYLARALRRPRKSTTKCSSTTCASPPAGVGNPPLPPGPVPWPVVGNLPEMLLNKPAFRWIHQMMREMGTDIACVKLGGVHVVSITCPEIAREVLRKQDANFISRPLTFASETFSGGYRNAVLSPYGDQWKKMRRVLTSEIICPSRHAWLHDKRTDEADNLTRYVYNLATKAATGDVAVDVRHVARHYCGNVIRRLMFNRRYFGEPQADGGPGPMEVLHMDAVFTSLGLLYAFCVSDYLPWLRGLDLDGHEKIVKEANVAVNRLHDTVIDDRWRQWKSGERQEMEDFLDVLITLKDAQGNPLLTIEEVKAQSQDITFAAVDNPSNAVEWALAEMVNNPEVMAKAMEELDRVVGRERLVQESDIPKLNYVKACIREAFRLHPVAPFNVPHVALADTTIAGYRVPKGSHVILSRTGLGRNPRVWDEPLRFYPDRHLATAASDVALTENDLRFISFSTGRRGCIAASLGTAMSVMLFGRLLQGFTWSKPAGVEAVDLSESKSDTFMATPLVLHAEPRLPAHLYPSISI

O=S([O-])S(=O)[O-].[Na+].[Na+] [Sodium dithionite, reference compound]
support of metabolism of p-hydroxyphenylacetaldoxime by P450OX [1]: does not support metabolism

O[C@H]1[C@H](O)[C@@H](O)CN2CC[C@H](O)[C@H]12 [castanospermine]
inhibition of glucosidase activity [2]: efficiently inhibited

ON=CCc1ccc(O)cc1 [p-hydroxyphenylacetaldoxime]
metabolism of the oxime as substrate of P450OX [3]: fully metabolized | Km [4]: 50 µM | Vmax for p-hydroxymandelonitrile production [4]: 400 nmoles mg protein^−1 h^−1 | incubation time until the amplitude of the binding spectrum reached a stable maximum [5]: approximately 45 min | substrate binding spectrum [5]: reverse type I spectrum

N#CCc1ccc(O)cc1 [p-hydroxyphenylacetonitrile]
Km [4]: 100 µM | Vmax for p-hydroxymandelonitrile production [4]: 50 nmoles mg protein^−1 h^−1 | substrate binding spectrum [5]: No substrate binding spectrum was obtained

ON=CCc1ccccc1 [phenylacetaldoxime]
metabolism of the oxime as substrate of P450OX [3]: can metabolize

N[C@@H](Cc1ccc(O)cc1)C(=O)O [tyrosine]
Km [4]: 30 µM | Vmax for p-hydroxymandelonitrile production [4]: 145 nmoles mg protein^−1 h^−1

B1: P450TYR: cytochrome P450 of Sorghum bicolor that converts tyrosine to p-hydroxyphenylacetaldehyd oxime (protein, UniProt Q43135 2-558, looked up)
Tyrosine N-monooxygenase: ATMEVEAAAATVLAAPLLSSSAILKLLLFVVTLSYLARALRRPRKSTTKCSSTTCASPPAGVGNPPLPPGPVPWPVVGNLPEMLLNKPAFRWIHQMMREMGTDIACVKLGGVHVVSITCPEIAREVLRKQDANFISRPLTFASETFSGGYRNAVLSPYGDQWKKMRRVLTSEIICPSRHAWLHDKRTDEADNLTRYVYNLATKAATGDVAVDVRHVARHYCGNVIRRLMFNRRYFGEPQADGGPGPMEVLHMDAVFTSLGLLYAFCVSDYLPWLRGLDLDGHEKIVKEANVAVNRLHDTVIDDRWRQWKSGERQEMEDFLDVLITLKDAQGNPLLTIEEVKAQSQDITFAAVDNPSNAVEWALAEMVNNPEVMAKAMEELDRVVGRERLVQESDIPKLNYVKACIREAFRLHPVAPFNVPHVALADTTIAGYRVPKGSHVILSRTGLGRNPRVWDEPLRFYPDRHLATAASDVALTENDLRFISFSTGRRGCIAASLGTAMSVMLFGRLLQGFTWSKPAGVEAVDLSESKSDTFMATPLVLHAEPRLPAHLYPSISI
turn-over number [6]: 230 min⁻¹
